Assay results reported in patent publication US10975068B2, “6-aminopyridin-3-yl thiazoles as modulators of RORγT” (Janssen Pharmaceutica NV, priority 2016, dated 2021).

Experiments:
full-length human RORγt = full-length human RORγt (Homo sapiens (Human), UniProt P51449); assay: RORγt (full-length human) reporter assay, Conditions B or C; format: cell-based; conditions: Conditions B or C; for RORγt (FL) Reporter Assay B or C, % inhibition (value marked *): marked *: footnote not given; for IC50: read-out: RORγt (FL) Reporter Assay B or C, IC50
Text: RORγt (Full-Length Human) Reporter Assay:
Cells used in this assay were transiently co-transfected with three different plasmids, one expressing the GAL4-DNA binding domain (DBD)-RORγt fusion protein under control of a CMV promoter (NH2-Gal4-DBD:RORC-COOH in pCMV-BD, Stratagene #211342), and two reporter plasmids—the firefly luciferase reporter under control of a GAL4 promoter (pFR-Luc 2×GAL4) and Renilla luciferase reporter under control of CMV promoter (pRL-CMV, Promega # E2261). The full-length coding sequence was used for human RORγt, i.e., nucleotides 142-1635 of human RORγt, transcript variant 2, NCBI Accession: NM_001001523.1 (SEQ ID NO:1). HEK293T cells were plated at 35,000 per well in 96-well plate in medium of DMEM with 10% FBS. After 18-22 hours incubation, the transfection was carried out by using a PEI solution with 170.5 ng total DNA/well (50 ng pCMV-BD-ROR plus 20 ng of pFR-Luc reporter and 0.5 ng of pRL-CMV reporter plus 100 ng Carrier DNA (Clontech #630440) for each well). 4-6 hours after transfection, cells were treated with compounds for overnight in the medium with final concentration of FBS 1.3% and DMSO 0.1%. After overnight (16 to 20 hours) incubation, media were removed and cells were lysed with 50 μL Glo Lysis Buffer (Promega) for 10-15 minutes followed by 10 minute incubation with 50 μL Dual Glo reagent (Promega) at room temperature. Firefly luciferase luminescence was measured using a BMG Pherastar plate reader. To each well, 50 μL Stop and Glo reagent was added and incubated for 10 minutes at room temperature. Renilla luminescence was measured using a BMG Pherastar plate reader. To calculate the effect of compounds on RORγt activity, firefly values were normalized against values of DMSO only and values of reference compound at saturating concentration, then further normalized against Renilla signals. IC50s were generated by plotting final Renilla normalized data against compound concentration and percent inhibition was calculated against DMSO control.
Cells used in this assay were transiently co-transfected with three different plasmids, one expressing the GAL4-DNA binding domain (DBD)-RORγt fusion protein under control of a CMV promoter (NH2-Gal4-DBD:RORC-COOH in pCMV-BD, Stratagene #211342), and two reporter plasmids—the firefly luciferase reporter under control of a GAL4 promoter (pFR-Luc 2×GAL4) and Renilla luciferase reporter under control of CMV promoter (pRL-CMV, Promega # E2261). The full-length coding sequence was used for human RORγt, i.e., nucleotides 142-1635 of human RORγt, transcript variant 2, NCBI Accession: NM_001001523.1 (SEQ ID NO:1). HEK293T cells were plated at 8750 cells per well in 384-well plate in medium of DMEM with 10% FBS. After 18-22 hours incubation, the transfection was carried out by using a PEI solution with 42.6 ng total DNA/well (12.5 ng pCMV-BD-ROR plus 5 ng of pFR-Luc reporter and 0.125 ng of pRL-CMV reporter plus 25 ng Carrier DNA (Clontech #630440) for each well). 4-6 hours after transfection, cells were treated with compounds for overnight in the medium with final concentration of FBS 1.3% and DMSO 0.1%. After overnight (16 to 20 hours) incubation, media were removed and cells were lysed with 20 μL Glo Lysis Buffer (Promega) for 10-15 minutes followed by 10 minute incubation with 20 μL Dual Glo reagent (Promega) at room temperature. Firefly luciferase luminescence was measured using a BMG Pherastar plate reader. To each well, 20 μL Stop and Glo reagent was added and incubated for 10 minutes at room temperature. Renilla luminescence was measured using a BMG Pherastar plate reader. To calculate the effect of compounds on RORγt activity, firefly values were normalized against values of DMSO only and values of reference compound at saturating concentration, then further normalized against Renilla signals.

[1] = biological target: human RORγt ligand binding domain (RORγt LBD) (Homo sapiens (Human), UniProt P51449); assay: RORγt ThermoFluor® assay (thermal shift binding); conditions: read-out: ThermoFluor® Assay, Kd
Text: ThermoFluor® is a fluorescence based assay that estimates ligand binding affinities by measuring the effect of a ligand on protein thermal stability (Pantoliano, M. W., Petrella, E. C., Kwasnoski, J. D., Lobanov, V. S., Myslik, J., Graf, E., Carver, T., Asel, E., Springer, B. A., Lane, P., and Salemme, F. R. (2001) High-density miniaturized thermal shift assays as a general strategy for drug discovery. J Biomol Screen 6, 429-40, and Matulis, D., Kranz, J. K., Salemme, F. R., and Todd, M. J. (2005) Thermodynamic stability of carbonic anhydrase: measurements of binding affinity and stoichiometry using ThermoFluor. Biochemistry 44, 5258-66). This approach is applicable to a wide variety of systems, and rigorous in theoretical interpretation through quantitation of equilibrium binding constants (KD).
The shift in the melting point described as a ΔTm is proportional to the concentration and affinity of the ligand. The compound potency may be compared as a rank order of either ΔTm values at a single compound concentration or in terms of KD values, estimated from concentration response curves.
RORγt ThermoFluor® Assay Construct
For the RORγt construct used in the ThermoFluor® assay, numbering for the nucleotide sequences was based on the reference sequence for human RORγt, transcript variant 2, NCBI Accession: NM_001001523.1 (SEQ ID NO:1). Nucleotides 850-1635 (SEQ ID NO:2) coding for the wild type human RORγt ligand binding domain (RORγt LBD) were cloned into the pHIS1 vector, a modified pET E. coli expression vector (Accelagen, San Diego), containing an in-frame N-terminal His-tag and a TurboTEV protease cleavage site (ENLYFQG, SEQ ID NO:3) upstream of the cloned insert sequence. The amino acid sequence for the RORγt construct used in the Thermofluor® assay is shown as SEQ ID NO:4.
ThermoFluor® experiments were carried out using instruments owned by Janssen Research and Discovery, L.L.C. through its acquisition of 3-Dimensional Pharmaceuticals, Inc. 1,8-ANS (Invitrogen) was used as a fluorescent dye. Protein and compound solutions are dispensed into black 384-well polypropylene PCR microplates (Abgene) and overlayed with silicone oil (1 μL, Fluka, type DC 200) to prevent evaporation.
Bar-coded assay plates are robotically loaded onto a thermostatically controlled PCR-type thermal block and then heated at a typical ramp-rate of 1° C./min for all experiments. Fluorescence was measured by continuous illumination with UV light (Hamamatsu LC6) supplied via fiber optic and filtered through a band-pass filter (380-400 nm; >6 OD cutoff). Fluorescence emission of the entire 384-well plate was detected by measuring light intensity using a CCD camera (Sensys, Roper Scientific) filtered to detect 500±25 nm, resulting in simultaneous and independent readings of all 384 wells. Images were collected at each temperature, and the sum of the pixel intensity in a given area of the assay plate was recorded versus temperature. Reference wells contained RORγt without compounds, and the assay conditions were as follows: • 0.065 mg/mL RORγt • 60 μM 1,8-ANS • 100 mM Hepes, pH 7.0 • 10 mM NaCl • 2.5 mM GSH • 0.002% Tween-20
Project compounds were arranged in a pre-dosed mother plate (Greiner Bio-one) wherein compounds are serially diluted in 100% DMSO by 1:2 from a high concentration of 10 mM over 12 columns within a series (column 12 is a reference well containing DMSO, no compound). The compounds were robotically dispensed directly into assay plates (×=46 nL) using a Hummingbird capillary liquid handling instrument (Digilab). Following compound dispense, protein and dye in buffer was added to achieve the final assay volume of 3 μL, followed by 1 μL of silicone oil.

Sequence of full-length human RORγt (P51449 other isoform, or with tags, fused parts or gaps): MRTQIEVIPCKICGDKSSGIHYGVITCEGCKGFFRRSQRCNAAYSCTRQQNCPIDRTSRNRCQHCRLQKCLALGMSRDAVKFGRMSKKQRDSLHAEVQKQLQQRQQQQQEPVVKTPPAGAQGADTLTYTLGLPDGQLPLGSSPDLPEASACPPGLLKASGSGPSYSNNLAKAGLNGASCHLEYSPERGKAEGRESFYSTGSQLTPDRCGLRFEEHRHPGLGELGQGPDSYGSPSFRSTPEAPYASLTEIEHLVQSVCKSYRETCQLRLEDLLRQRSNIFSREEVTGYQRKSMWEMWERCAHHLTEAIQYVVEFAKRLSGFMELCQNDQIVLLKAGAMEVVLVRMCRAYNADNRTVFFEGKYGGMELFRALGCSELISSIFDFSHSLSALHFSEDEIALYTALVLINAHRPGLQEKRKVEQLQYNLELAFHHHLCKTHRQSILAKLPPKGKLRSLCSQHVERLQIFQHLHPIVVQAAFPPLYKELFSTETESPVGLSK
Sequence of human RORγt ligand binding domain (RORγt LBD) (P51449 other isoform, or with tags, fused parts or gaps): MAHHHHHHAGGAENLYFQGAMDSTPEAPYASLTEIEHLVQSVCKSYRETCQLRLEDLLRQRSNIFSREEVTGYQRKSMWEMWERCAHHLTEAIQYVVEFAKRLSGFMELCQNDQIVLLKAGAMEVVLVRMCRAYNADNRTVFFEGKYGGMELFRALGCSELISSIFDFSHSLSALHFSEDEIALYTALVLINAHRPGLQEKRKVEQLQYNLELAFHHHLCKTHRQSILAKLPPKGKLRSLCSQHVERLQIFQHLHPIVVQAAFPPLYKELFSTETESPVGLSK

| Structure (SMILES) | RORγt (FL) Reporter Assay B or C, % inhibition (value marked *) (full-length human RORγt) | IC50 (full-length human RORγt) [nM] | Kd [1] [nM] |
| --- | --- | --- | --- |
| CC[C@H](Nc1cc(C(F)F)c(-c2sc(C(=O)N[C@H]3C[C@@H]3O)nc2C(=O)N2CCC[C@@H]2C)cn1)C(F)(F)F (relative stereo) [Example 214, 5-(4-(Difluoromethyl)-6-(((S)-1,1,1-trifluorobutan-2-yl)amino)pyridin-3-yl)-N-((1S*,2S*)-2-hydroxycyclopropyl)-4-((S)-2-methylpyrrolidine-1-carbonyl)thiazole-2-carboxamide] | 98* % | 75 | 12 |
| CC[C@H](Nc1cc(C(F)F)c(-c2sc(C(=O)N[C@@H](C)[C@H](C)O)nc2C(=O)N2CCC[C@@H]2C)cn1)C(F)(F)F (relative stereo) [Example 217, 5-(4-(Difluoromethyl)-6-(((S)-1,1,1-trifluorobutan-2-yl)amino)pyridin-3-yl)-N-((2S*,3S*)-3-hydroxybutan-2-yl)-4-((S)-2-methylpyrrolidine-1-carbonyl)thiazole-2-carboxamide] | 109* % | 19 | 3.2 |
| CC[C@H](Nc1cc(C(F)F)c(-c2sc(C(=O)N[C@@H](C)[C@@H](C)O)nc2C(=O)N2CCC[C@@H]2C)cn1)C(F)(F)F (relative stereo) [Example 219, 5-(4-(Difluoromethyl)-6-(((S)-1,1,1-trifluorobutan-2-yl)amino)pyridin-3-yl)-N-((2S*,3R*)-3-hydroxybutan-2-yl)-4-((S)-2-methylpyrrolidine-1-carbonyl)thiazole-2-carboxamide] | 112* % | 20 | 4.1 |
| C[C@H](Nc1cc(C(F)F)c(-c2sc(C(=O)N[C@H]3C[C@@H]3O)nc2C(=O)N2CCC[C@@H]2C)cn1)C(F)(F)F (relative stereo) [Example 223, 5-(4-(Difluoromethyl)-6-(((S)-1,1,1-trifluoropropan-2-yl)amino)pyridin-3-yl)-N-((1S*,2S*)-2-hydroxycyclopropyl)-4-((S)-2-methylpyrrolidine-1-carbonyl)thiazole-2-carboxamide] | 112* % | 100 | 33 |
| C[C@H](O)[C@@H](C)NC(=O)c1nc(C(=O)N2CCC[C@@H]2C)c(-c2cnc(NC(C)(C)C)cc2C(F)(F)F)s1 (relative stereo) [Example 235, 5-(6-(tert-Butylamino)-4-(trifluoromethyl)pyridin-3-yl)-N-((2R*,3S*)-3-hydroxybutan-2-yl)-4-((S)-2-methylpyrrolidine-1-carbonyl)thiazole-2-carboxamide] | 106* % | 34 | 1.2 |
| C[C@H](O)[C@H](C)NC(=O)c1nc(C(=O)N2CCC[C@@H]2C)c(-c2cnc(NC(C)(C)C)cc2C(F)(F)F)s1 (relative stereo) [Example 236, 5-(6-(tert-Butylamino)-4-(trifluoromethyl)pyridin-3-yl)-N-((2S*,3S*)-3-hydroxybutan-2-yl)-4-((S)-2-methylpyrrolidine-1-carbonyl)thiazole-2-carboxamide] | 122* % | 47 | 1.6 |

The next lines start with the values.

| RORγt (FL) Reporter Assay B or C, % inhibition (value marked *) (full-length human RORγt) | IC50 (full-length human RORγt) [nM] | Kd [1] [nM] | Structure (SMILES) |
| --- | --- | --- | --- |
| 96* % | 9.5 | 4.1 | CC[C@H](Nc1cc(C(F)F)c(-c2sc(C(=O)N[C@H](C)[C@@H](C)O)nc2C(=O)N2CCC[C@@H]2C)cn1)C(F)(F)F (relative stereo) [Example 216, 5-(4-(Difluoromethyl)-6-(((S)-1,1,1-trifluorobutan-2-yl)amino)pyridin-3-yl)-N-((2R*,3R*)-3-hydroxybutan-2-yl)-4-((S)-2-methylpyrrolidine-1-carbonyl)thiazole-2-carboxamide] |
| 111* % | 45 | 7.8 | CC[C@H](Nc1cc(C(F)F)c(-c2sc(C(=O)N[C@H](C)[C@H](C)O)nc2C(=O)N2CCC[C@@H]2C)cn1)C(F)(F)F (relative stereo) [Example 218, 5-(4-(Difluoromethyl)-6-(((S)-1,1,1-trifluorobutan-2-yl)amino)pyridin-3-yl)-N-((2R*,3S*)-3-hydroxybutan-2-yl)-4-((S)-2-methylpyrrolidine-1-carbonyl)thiazole-2-carboxamide] |
| 101* % | 31 | 2.3 | C[C@@H](O)[C@@H](C)NC(=O)c1nc(C(=O)N2CCC[C@@H]2C)c(-c2cnc(NC(C)(C)C)cc2C(F)(F)F)s1 (relative stereo) [Example 237, 5-(6-(tert-Butylamino)-4-(trifluoromethyl)pyridin-3-yl)-N-((2R*,3R*)-3-hydroxybutan-2-yl)-4-((S)-2-methylpyrrolidine-1-carbonyl)thiazole-2-carboxamide] |
